Test results taken from patent publication US11141450B2, “Compositions for reducing appetite and craving, increasing satiety, enhancing mood, and reducing stress” (NEKTIUM PHARMA, S.L., priority 2017, dated 2021).

Legend:
Fisher 344 rats [1] = experiment: EEG signals by telemetry from implanted electrodes in freely moving rats, Example 1; type: in vivo; conditions: first hour; all brain areas; p<0.01 relative to pre-drug baseline for the reference drugs; Rimonabant 5 mg/kg, Methylphenidate 1.0 mg/kg, Selegiline 1.5 mg/kg; FIG. 1
Source text: Fisher 344 rats (11 months of age and day-night converted, weight about 350-400 g, provided by Charles River Laboratories, D-97633, Sulzfeld) were used in a series of experiments on the effects of various herbal and pharmaceutical products on central nervous system activity. Products were provided to the test subjects orally (gavage).
The substances tested in this study included: • A control vehicle (0.9% NaCl); • Cyperus esculentus tuberous rhizome, ethanol extract, administered in an amount of 200 mg/kg to 7 rats; • Mango leaf, ethanol extract, administered in an amount of 50 mg/kg to 7 rats; • Cyperus Esculentus tuberous rhizome peel, ethanol extract, 150 mg/kg, plus Mango leaf extract, containing 60% of Mangiferin, 50 mg/kg, administered to 5 rats • Selegiline, administered in amount of 1.5 mg/kg to 8 rats • Methylphenidate administered in an amount of 1.0 mg/kg to 8 rats • Rimonabant administered in amount of 5 mg/kg to 6 rats
EEG signals were recorded by telemetry from 4 implanted electrodes in the frontal cortex, hippocampus and striatum of freely moving rats from inside a totally copper shielded room. Signals were collected in sweeps of 4-second duration and Fast Fourier transformed using a Hanning window. EEG signals were recorded over a period starting 5 minutes after administration of the test substances, and ending 65 minutes after administration of the test substances. Sampling frequency was 512 Hz. […] In an off-line procedure, the spectra were averaged to give longer periods for further analysis and data presentation. Spectral activity within the frontal cortex, hippocampus, striatum and reticular formation was recorded.

Fisher 344 rats [2] = experiment: EEG signals by telemetry from implanted electrodes in freely moving rats, first hour and fifth hour, Example 2; type: in vivo; conditions: first hour after administration and 5 hours after administration
Description: Products were provided to the test subjects orally (gavage).
EEG signals were recorded by telemetry from 4 implanted electrodes in the frontal cortex, hippocampus and striatum of freely moving rats from inside a totally copper shielded room.

COC(=O)C(c1ccccc1)C1CCCCN1 (stereo not shown) [Methylphenidate]
effect on alpha-2 waves (Fisher 344 rats [1]): main significant effect

Cc1c(C(=O)NN2CCCCC2)nn(-c2ccc(Cl)cc2Cl)c1-c1ccc(Cl)cc1 [Rimonabant]
effect on alpha-2 waves (Fisher 344 rats [1]): main significant effect

C#CCN(C)[C@H](C)Cc1ccccc1 [Selegiline]
effect on alpha-2 waves (Fisher 344 rats [1]): main significant effect

O=c1c2cc(O)c(O)cc2oc2cc(O)c([C@@H]3O[C@H](CO)[C@@H](O)[C@H](O)[C@H]3O)c(O)c12 [pure Mangiferin, Mangiferin]
impact on alpha-1 brain wave activity in the hippocampus (Fisher 344 rats [2]): Neither Tigernut extract nor Mango leaf extract (60% Mangiferin) or pure Mangiferin administered alone showed a significant decrease of alpha-1 brain wave activity
